In patent US4081531A, “Antibiotic mimosamycin” (priority 1975, dated 1978):
In brackets after ≈: the same amount, converted by molar mass.

Test system: Mycobacterium tuberculosis SMR
Assay: Antimicrobial activity (MIC) against tubercle bacilli
Type: cell-based
Details: 672 h

Structure (SMILES): COC1=C(C)C(=O)c2cc(=O)n(C)cc2C1=O [mimosamycin]
- MIC: 1.56 µg/mL (≈ 6.69 µM)
